Patent publication US10189803B2, “Synthesis of therapeutic and diagnostic drugs centered on regioselective and stereoselective ring opening of aziridinium ions” (ILLINOIS INSTITUTE OF TECHNOLOGY, priority 2008, dated 2019)

Columns and labels:
[1] = In vivo biodistribution of radiolabeled complexes in normal athymic mice; details: for percent injected dose per gram, Blood / percent injected dose per gram, Femur / percent injected dose per gram, Heart / percent injected dose per gram, Kidney / percent injected dose per gram, Liver / percent injected dose per gram, Liver (second Liver line of Table 7) / percent injected dose per gram, Lung / percent injected dose per gram, Spleen: non-tumor bearing mice, ± SD
Description: The in vivo stability of the radiolabeled complexes was evaluated by performing biodistribution studies in normal athymic mice. Selected organs and the blood were harvested at five time points, 0.5, 1, 4, 8, and 24 h post-injection and the radioactivity measured. […] C-NE3TA radiolabeled with ^153Gd was almost completely cleared from blood, liver, spleen, lung, heart, and femur in less than 4 hours, and radioactivity level in the kidney was 0.16%±0.11 ID/g at 24 hour post-injection (Table 9).
In vivo biodistribution studies oh the radiolabeled metal complexes. Female athymic mice were obtained from Charles River Laboratories (Wilmington, Mass.) at 4-6 weeks of age. The pH of the radiolabeled ligands was adjusted to pH ˜7.0 with 0.5 M sodium bicarbonate (pH 10.5) and diluted in phosphate-buffered saline. The radiolabeled ligands ([…] for ^86Y, ^205/6Bi, ^177Lu, and ^203Pb) were administered to the mice in 200 μL of solution via tail vein injection. The mice (5 per data point) were sacrificed by exsanguination at 0.5, 1, 4, 8, and 24 h. Blood and the major organs were harvested, wet-weighed and the radioactivity measured in a γ-scintillation counter (1480 Wizard, Perkin Elmer). The percent injected dose per gram (% ID/g) was determined for each tissue. The values presented are the mean and standard deviation for each tissue.

[2] = In vitro serum stability of radiolabeled C-NE3TA complexes in human serum (SE-HPLC); format: in vitro ADME; details: 37° C., up to 11 days
Description: C-NE3TA was radiolabeled with ^90Y, ^177Lu, ^203Pb, ^205/6Bi, or ^153Gd as previously described (Chong, H. S.; Milenic, D. E.; Garmestani, K.; Brady, E. D.; Arora, H.; Pfiester, C.; Brechbiel, M. W., Nucl. Med. Biol. 2006, 33, 459-67; Chong H S, Garmestani K, Bryant Jr., L H Milenic D E, Overstreet T, Birch N, Le N, Brady E D, Brechbiel M W. J. Med. Chem. 2006, 49, 2055-2062). In vitro serum stability of the radiolabeled complexes purified via ion-exchange chromatography was performed to determine if C-NE3TA labeled with the radioisotopes remained stable without transchelation or loss of their respective radionuclide in human serum. This was assessed by measuring the transfer of radionuclide from the complex to serum proteins over the course of 11 days.
In vitro stability of the radiolabeled metal complexes. The stability of the purified radiolabeled complexes was evaluated in human serum (Gemini Bioproducts, Woodland, Calif.) for up to 11 days. The serum stability of the radiolabeled complexes was assessed by measuring the transfer of the radionuclide from each complex to serum proteins using SE-HPLC methods. Radiolabeled complexes were diluted to an appropriate volume that allowed for preparation of multiple samples containing 5-10 μCi and were filter-sterilized using a Millex-GV 0.22 μm filter. This stock solution was then mixed with 1400 μL of sterile normal human serum. Aliquots (200 μL) were drawn and separated into individual tubes for subsequent analysis using aseptic technique. The samples were incubated at 37° C., and at designated intervals, subjected to analysis by SE-HPLC. Samples were loaded onto the HPLC and eluted with PBS, pH 7.4 isocratically at 1 mL/min. […] Radioactivity associated with a transfer to serum proteins generally appeared at ˜6 min.

O=C(O)CNC(Cc1ccc([N+](=O)[O-])cc1)CN1CCN(CC(=O)O)CCN(CC(=O)O)CC1.[90Y] (stereo not drawn) [^90Y-C-NE3TA]
percent injected dose per gram, Blood ([1]; 0.50 hr): 1.86 ± 1.92 % ID/g | percent injected dose per gram, Femur ([1]; 0.50 hr): 1.19 ± 0.48 % ID/g | percent injected dose per gram, Heart ([1]; 0.50 hr): 0.79 ± 0.52 % ID/g | percent injected dose per gram, Kidney ([1]; 0.50 hr): 2.58 ± 1.04 % ID/g | percent injected dose per gram, Liver ([1]; 0.50 hr): 1.65 ± 0.59 % ID/g | percent injected dose per gram, Liver (second Liver line of Table 7) ([1]; 0.50 hr): 0.48 ± 0.08 % ID/g | percent injected dose per gram, Lung ([1]; 0.50 hr): 1.64 ± 0.99 % ID/g | percent injected dose per gram, Spleen ([1]; 0.50 hr): 0.70 ± 0.15 % ID/g | percent injected dose per gram, Blood ([1]; 1.00 hr): 0.76 ± 1.09 % ID/g | percent injected dose per gram, Femur ([1]; 1.00 hr): 0.82 ± 0.26 % ID/g | percent injected dose per gram, Heart ([1]; 1.00 hr): 0.38 ± 0.31 % ID/g | percent injected dose per gram, Kidney ([1]; 1.00 hr): 2.00 ± 2.32 % ID/g | percent injected dose per gram, Liver ([1]; 1.00 hr): 0.88 ± 0.59 % ID/g | percent injected dose per gram, Liver (second Liver line of Table 7) ([1]; 1.00 hr): 0.32 ± 0.07 % ID/g | percent injected dose per gram, Lung ([1]; 1.00 hr): 1.16 ± 0.65 % ID/g | percent injected dose per gram, Spleen ([1]; 1.00 hr): 0.47 ± 0.26 % ID/g | percent injected dose per gram, Blood ([1]; 4.00 hr): 0.05 ± 0.05 % ID/g | percent injected dose per gram, Femur ([1]; 4.00 hr): 0.30 ± 0.04 % ID/g | percent injected dose per gram, Heart ([1]; 4.00 hr): 0.06 ± 0.02 % ID/g | percent injected dose per gram, Kidney ([1]; 4.00 hr): 0.74 ± 0.15 % ID/g | percent injected dose per gram, Liver ([1]; 4.00 hr): 0.17 ± 0.05 % ID/g | percent injected dose per gram, Liver (second Liver line of Table 7) ([1]; 4.00 hr): 0.29 ± 0.03 % ID/g | percent injected dose per gram, Lung ([1]; 4.00 hr): 0.10 ± 0.04 % ID/g | percent injected dose per gram, Spleen ([1]; 4.00 hr): 0.13 ± 0.08 % ID/g | percent injected dose per gram, Blood ([1]; 8.00 hr): 0.02 ± 0.00 % ID/g | percent injected dose per gram, Femur ([1]; 8.00 hr): 0.22 ± 0.06 % ID/g | percent injected dose per gram, Heart ([1]; 8.00 hr): 0.05 ± 0.01 % ID/g | percent injected dose per gram, Kidney ([1]; 8.00 hr): 0.49 ± 0.10 % ID/g | percent injected dose per gram, Liver ([1]; 8.00 hr): 0.20 ± 0.16 % ID/g | percent injected dose per gram, Liver (second Liver line of Table 7) ([1]; 8.00 hr): 0.22 ± 0.03 % ID/g | percent injected dose per gram, Lung ([1]; 8.00 hr): 0.16 ± 0.22 % ID/g | percent injected dose per gram, Spleen ([1]; 8.00 hr): 0.07 ± 0.02 % ID/g | percent injected dose per gram, Blood ([1]; 24.00 hr): 0.00 ± 0.00 % ID/g | percent injected dose per gram, Femur ([1]; 24.00 hr): 0.08 ± 0.02 % ID/g | percent injected dose per gram, Heart ([1]; 24.00 hr): 0.02 ± 0.01 % ID/g | percent injected dose per gram, Kidney ([1]; 24.00 hr): 0.35 ± 0.05 % ID/g | percent injected dose per gram, Liver ([1]; 24.00 hr): 0.10 ± 0.03 % ID/g | percent injected dose per gram, Liver (second Liver line of Table 7) ([1]; 24.00 hr): 0.17 ± 0.02 % ID/g | percent injected dose per gram, Lung ([1]; 24.00 hr): 0.23 ± 0.36 % ID/g | percent injected dose per gram, Spleen ([1]; 24.00 hr): 0.07 ± 0.02 % ID/g | blood and organ clearance (in words) ([1]; normal athymic mice): rapid blood and liver clearance | stability in human serum (in words) [2]: no measurable loss of radioactivity
